The text below walks through data of ChEMBL document CHEMBL1145613, “Tubulysin analogs incorporating desmethyl and dimethyl tubuphenylalanine derivatives” (Bioorg Med Chem Lett, 2008).

A short description of test [1]: Inhibition of rat brain tubulin polymerization.
A further test concerns 1A9. Description: Antiproliferative activity against human 1A9 cells. It is filed as functional, cell-based.

Molecules are shown by their SMILES.

For the compound `CC[C@H](C)[C@H](NC(=O)[C@@H]1CCCN1C)C(=O)N[C@H](CC(=O)c1nc(C(=O)N[C@H](CCC(=O)O)Cc2ccccc2)cs1)C(C)C`, the IC50 (usually the concentration that gives 50% inhibition) in test [1] was found to be 11000 nM; in the test on 1A9 it was 50 µM.

As to `CC[C@H](C)[C@H](NC(=O)[C@H]1CCCCN1)C(=O)N[C@H](CC(=O)c1nc(C(=O)N[C@H](CCC(=O)O)Cc2ccccc2)cs1)C(C)C`, the concentration for half-maximal inhibition (IC50) in test [1] was 4400 nM; with 1A9 it was over 50 µM.

On to `CC[C@H](C)[C@H](NC(=O)[C@H]1CCCN1C)C(=O)N[C@H](CC(=O)c1nc(C(=O)N[C@@H](Cc2ccccc2)CC(C)(C)C(=O)O)cs1)C(C)C`, for which the figures for the concentration for half-maximal inhibition (IC50) (in test [1]; in the test on 1A9) were 2700 nM and 3.2 µM, respectively.

`CC[C@H](C)[C@H](NC(=O)[C@H]1CCCCN1C)C(=O)N[C@H](CC(=O)c1nc(C(=O)N[C@@H](Cc2ccccc2)CC(C)(C)C(=O)O)cs1)C(C)C`: the IC50 in test [1] turned out to be 1500 nM; in the test on 1A9, 0.3 µM.

As to `CC[C@H](C)[C@H](NC(=O)[C@@H]1CCCCN1C)C(=O)N[C@H](CC(=O)c1nc(C(=O)N[C@H](CCC(=O)O)Cc2ccccc2)cs1)C(C)C`, the half-inhibitory concentration (IC50) in test [1] is 13000 nM; in the test on 1A9 it was over 50 µM.

As for `CC[C@H](C)[C@H](NC(=O)[C@H]1CCCN1C)C(=O)N[C@H](CC(=O)c1nc(C(=O)N[C@H](CCC(=O)O)Cc2ccccc2)cs1)C(C)C`, the IC50 in test [1] was found to be 2300 nM; in the test on 1A9 it was 24 µM.

Take `CC[C@H](C)[C@H](NC(=O)[C@@H]1CCCCN1)C(=O)N[C@H](CC(=O)c1nc(C(=O)N[C@H](CCC(=O)O)Cc2ccccc2)cs1)C(C)C`: the half-inhibitory concentration (IC50) was over 20000 nM in test [1] and over 50 µM in the test on 1A9.

On to `CC[C@H](C)[C@H](NC(=O)[C@H]1CCCN1)C(=O)N[C@H](CC(=O)c1nc(C(=O)N[C@H](CCC(=O)O)Cc2ccccc2)cs1)C(C)C`, for which the IC50 in test [1] is over 20000 nM; in the test with 1A9, over 50 µM.

Regarding `CC[C@H](C)[C@H](NC(=O)[C@H]1CCCCN1C)C(=O)N[C@H](CC(=O)c1nc(C(=O)N[C@H](CCC(=O)O)Cc2ccccc2)cs1)C(C)C`, the results for the IC50 (in test [1]; in the test with 1A9) were 600 nM and 4 µM, respectively.

In the case of `CC[C@H](C)[C@H](NC(=O)[C@@H]1CCCN1)C(=O)N[C@H](CC(=O)c1nc(C(=O)N[C@H](CCC(=O)O)Cc2ccccc2)cs1)C(C)C`, the IC50 in test [1] is over 20000 nM; with 1A9, over 50 µM.

In turn, `COc1ccc(/C=C\c2cc(OC)c(OC)c(OC)c2)cc1O` [COMBRETASTATIN A4] returned an IC50 in the test with 1A9 of 0.0036 µM.

For `CN[C@H](C(=O)N[C@H](C(=O)N(C)[C@H](/C=C(\C)C(=O)O)C(C)C)C(C)(C)C)C(C)(C)c1ccccc1` [TALTOBULIN], the results for the IC50 (in test [1]; in the test with 1A9) were 700 nM and 0.0003 µM, respectively.

For `CC[C@H](C)[C@H](NC(=O)[C@H]1CCCCN1C)C(=O)N(COC(=O)CC(C)C)[C@H](C[C@@H](OC(C)=O)c1nc(C(=O)N[C@@H](Cc2ccc(O)cc2)C[C@H](C)C(=O)O)cs1)C(C)C` [TUBULYSIN-A], inhibition in test [1] was half-maximal at 750 nM (IC50).
